These are literature values, as cited in patent US7666858B2, “Pharmaceutical composition for treatment of phimosis using topical corticosteroid” (Apsen Farmaceutica S.A., priority 2000, dated 2010).

The conditions of data set [1]: Lindhagen 1996.

For the molecule `C[C@H]1C[C@H]2[C@@H]3CCC4=CC(=O)C=C[C@]4(C)[C@@]3(F)[C@@H](O)C[C@]2(C)[C@@]1(O)C(=O)CO` [Betamethasone], the solubility in alcohol entry (alcohol) is recorded as “partially alcohol-soluble”. Also, the solubility in water entry (water) is given as “water-insoluble”.

For `CCC(=O)O[C@]1(C(=O)CCl)[C@@H](C)C[C@H]2[C@@H]3CCC4=CC(=O)C=C[C@]4(C)[C@@]3(F)[C@@H](O)C[C@@]21C` [clobetasol propionate], in data set [1], the success was 70%.
